{
  "source": "patent EP0470144B1",
  "about": "“BETA-HYDROXAMATE D-ASPARTIC ACID FOR TREATMENT OF VIRAL INFECTIONS AND TUMOURS” (priority 1989, dated 1990)",
  "key": {"[1]": {"system": "FLV", "assay": "Friend virus (FLV) replication in SC1 cell culture, reverse transcriptase activity in supernatants", "type": "cell-based", "conditions": "SC1 cells infected with FLV", "text": "Des cultures de cellules SC1 traitées avec du polybrène ont été infectées avec du FLV (5 x 10⁵ particules infectantes pour 2 x 10⁵ cellules). Les cellules ont ensuite été mises en culture avec diverses concentrations de DAH et l'activité de réplication du FLV a été mesurée par dosage de l'activité transcriptase inverse apparaissant dans les surnageants de milieux de culture aux 2ème, 4ème et 6ème jour après l'infection."}, "[2]": {"system": "leucémie 1210, lymphome RBL5 et mélanome B16", "conditions": "600 mg/kg per day for 5 days; cited from earlier work"}, "[3]": {"assay": "Acute parenteral toxicity in mice (lethal doses)", "type": "in vivo, souris B6D2F1", "conditions": "evaluated at 24 hours and 14 days", "text": "La toxicité du DAH par voie parentérale a été évaluée chez la souris B6D2F1 âgée de six semaines et pesant entre 20 et 22 g. Pour chaque niveau de dose, on a utilisé treize mâles et treize femelles avec une période d'observation de 14 jours. La dose léthale (DL) a été évaluée 24 heures après l'injection de DAH puis à 14 jours. Dans ces conditions, on a pu montrer que la DL 10 (10 % de mortalité) était observée pour des posologies de 8,5-9 g/kg, la DL 50 correspondait à 11-12 g/kg et la DL 90 à 14-15 g/kg. Il n'a pas été observé de différence significative de mortalité à 24 heures et à 14 jours pour un niveau de dose donné."}, "[4]": {"system": "virus de Friend", "assay": "Survival of mice infected with Friend virus", "type": "in vivo, souris DBA/2", "text": "Dans d'autres essais, le virus a été maintenu par passages successif intrapéritonéaux chez la souris DBA/2. Cet entretien a été fait à partir de la rate de l'animal tous les 21 jours. L'activité du DAH a été évaluée en comparant les durées de survie des animaux à qui est injecté le virus, avec ou sans DAH. Le traitement a commencé trois jours après l'infection virale car on considère qu'il faut ce laps de temps pour qu'il y ait des séquences du virus dans le génome des précurseurs érythroïdes de la souris infectée. Après avoir fait varier le nombre d'injections journalières et la durée du traitement pour une dose donnée, il a été établi que 3 injections de 1g/kg/dose de DAH durant les 10 premiers jours et 2 injections de 1g/kg/dose de DAH pendant les 20 jours suivants, produisent un T/C de 239 %. Les résultats sont rapportés dans le tableau suivant : Tableau 2"}, "[5]": {"assay": "Toxicity in dogs (NCI recommendations), intravenous administration", "type": "in vivo, chiens Beagle", "text": "En suivant les recommandations du National Cancer Institute (NCI), on a déterminé : a) la dose maximale non toxique, b) la dose toxique faible, c) la dose maximale toxique non léthale, d) la dose léthale.\nCes études ont été réalisées sur des chiens Beagle âgés de six à sept mois et pesant 6,5 à 7,5 kg. Pour mettre en évidence les effets toxiques du DAH, on a mesuré des paramètres cliniques, morphologiques, biochimiques et hématologiques.\nL'évaluation de la fréquence cardiaque, l'électrocardiogramme, la pression artérielle (mesurée par cathétérisme intra-artériel), et la fréquence respiratoire ont été mesurées chez des chiens anesthésiés par l'alphachloralose."}, "[6]": {"assay": "Pre-clinical pharmacology: DAH levels in serum and urine after intraperitoneal injection", "type": "in vivo, souris B6D2F1", "conditions": "3 g/kg intraperitoneal", "text": "Le DAH a été dosé dans les sérums et les urines de souris B6D2F1 âgées de 8 semaines, ayant reçu une injection intrapéritonéale de DAH de 3 g/kg. Le DAH a été dosé par spectrophotométrie par mise en évidence du complexe Fe3+- hydroxamate à 550 nm."}, "[7]": {"system": "lymphome L5178Y", "assay": "Antitumour activity in the L5178Y lymphoma model, survival", "type": "in vivo", "conditions": "days 1,2,3,4,5; for Nombre d'animaux survivants: at 120 days", "text": "L'activité antitumorale du DAH a été aussi étudiée sur deux autres modèles murins : le lymphome L5178Y et la leucémie P388.\nLes cellules de lymphome murin (L5178Y) sont maintenues par passages intrapéritonéaux successifs chez la souris DBA/2 et injectées, pour les essais, à la dose de […] par souris."}},
  "note": "Where “and” joins values, the source holds several entries; their conditions need not be identical. Equal entries are not always repeated.",
  "data": [
    {"smiles": "N[C@@H](CC(=O)NO)C(=O)O", "note": "[DAH, D-acide aspartique β-hydroxamate]", "values": [
      {"measurement": "activité transcriptase inverse abaissée", "setting": "[1]; DAH 0,2 mM", "value": "~70", "unit": "%"},
      {"measurement": "activité transcriptase inverse abaissée", "setting": "[1]; DAH 0,5 mM", "value": 80, "unit": "%"},
      {"measurement": "activité transcriptase inverse abaissée", "setting": "[1]; DAH 1 mM", "value": 90, "unit": "%"},
      {"measurement": "activité in vivo sur trois modèles tumoraux murins", "setting": "[2]", "value": "aucune activité"},
      {"measurement": "DL 10 (10 % de mortalité)", "setting": "[3]", "value": "8,5-9 g/kg and 8,5 g/kg"},
      {"measurement": "DL 50", "setting": "[3]", "value": "11 to 12", "unit": "g/kg"},
      {"measurement": "DL 90", "setting": "[3]", "value": "14 to 15", "unit": "g/kg"},
      {"measurement": "Nombre d'animaux survivants", "setting": "[4]; 1 g/kg x 3/j J 1-10 then x 2/j J 11-30", "value": "5/10"},
      {"measurement": "T/Cx100", "setting": "[4]; 1 g/kg x 3/j J 1-10 then x 2/j J 11-30, T/C = survival time treated/controls", "value": "239,86%"},
      {"measurement": "Nombre d'animaux survivants", "setting": "[4]; 1 g/kg x 3/j, J 1-10", "value": "0/10"},
      {"measurement": "T/Cx100", "setting": "[4]; 1 g/kg x 3/j, J 1-10", "value": 193, "unit": "%"},
      {"measurement": "nadir plaquettes", "setting": "[5]; 5 g/kg, 8th day after injection, return to pre-treatment level seven to ten days later", "value": "39 x 109 plaquettes/l"},
      {"measurement": "nadir plaquettes", "setting": "[5]; 9 g/kg, twenty-two days after injection", "value": "17 x 109 plaquettes/l"},
      {"measurement": "récupération partielle (plaquettes)", "setting": "[5]; 9 g/kg, two months later", "value": 56, "unit": "x 10⁹/l"},
      {"measurement": "fréquence cardiaque, électrocardiogramme, pression artérielle, fréquence respiratoire", "setting": "[5]; anaesthetised dogs, intravenous 1 to 5 g/kg", "value": "aucune modification"},
      {"measurement": "dose maximale non toxique", "setting": "[5]; dog, in vivo", "value": "2,5-3 g/kg"},
      {"measurement": "dose toxique faible", "setting": "[5]; dog, in vivo", "value": 5000, "unit": "mg/kg"},
      {"measurement": "dose toxique maximale non léthale", "setting": "[5]; dog, in vivo", "value": "~9000", "unit": "mg/kg"},
      {"measurement": "toxicité de la fonction rénale ou hépatique", "setting": "[5]; doses up to 9 g/kg", "value": "Aucune toxicité"},
      {"measurement": "toxicité sur les lignées granulo-monocytaires et érythrocytaires", "setting": "[5]; including high doses (9 g/kg)", "value": "Aucune toxicité"},
      {"measurement": "dose à partir de laquelle une toxicité sur la lignée plaquettaire a été constatée", "setting": "[5]; intravenous", "value": "≥ 5000", "unit": "mg/kg"},
      {"measurement": "Effets toxiques d'apparition immédiate", "setting": "[5]; intravenous 1 to 10 g/kg (10 % solution), during administration, with anorexia up to 24 hours", "value": "vomissements"},
      {"measurement": "tolérance à l'administration réitérée", "setting": "[5]; intravenous, two weeks, five weekly injections of 1 g/kg", "value": "aucun signe d'intolérance autre que des vomissements"},
      {"measurement": "complication rénale", "setting": "[5]; one dog, dose of more than 10 g/kg, avoided later by prehydration", "value": "précipitation des cristaux de DAH dans les tubules rénaux"},
      {"measurement": "modification structurale du DAH éliminé par voie urinaire", "setting": "[6]", "value": "aucune modification structurale"},
      {"measurement": "pic plasmatique moyen", "setting": "[6]", "value": 6, "unit": "mg/mL"},
      {"measurement": "pic urinaire", "setting": "[6]", "value": 220, "unit": "mg/mL"},
      {"measurement": "temps du pic plasmatique", "setting": "[6]", "value": 20, "unit": "min"},
      {"measurement": "élimination urinaire prolongée sur", "setting": "[6]", "value": 24, "unit": "heures"},
      {"measurement": "temps du pic urinaire", "setting": "[6]; after injection", "value": 250, "unit": "min"},
      {"measurement": "demi-vie", "setting": "[6]; decrease of plasma concentration", "value": 35, "unit": "min"},
      {"measurement": "T/Cx100", "setting": "[7]; 1 g/kg x 3/j", "value": 576, "unit": "%"},
      {"measurement": "Nombre d'animaux survivants", "setting": "[7]; 1 g/kg x 3/j", "value": "5/5"},
      {"measurement": "T/Cx100", "setting": "[7]; 1 g/kg x 4/j", "value": 576, "unit": "%"},
      {"measurement": "Nombre d'animaux survivants", "setting": "[7]; 1 g/kg x 4/j", "value": "5/5"}
    ]}
  ]
}
